Patent publication US8895499B2, “β-hairpin peptidomimetics” (Polyphor AG, priority 2010, dated 2014)
Peptide text beside a SMILES is read from it.

How the values were obtained:
[1] = system: Shigella boydii DSM 7532; conditions: Mueller-Hinton II broth + 0.02% BSA, 18-20 hours at 37° C.
Procedure: […] colony forming units (CFU)/mL. Aliquots (50 μl) of inoculate were added to 50 μl of MH broth+0.02% BSA containing the peptide in serial two-fold dilutions. The following microorganisms were used to determine antibiotic selectivity of the peptides: Bacillus subtilis DSM 10 and Shigella boydii DSM 7532.

[2] = in vitro; type: cell-based
Procedure: The cytotoxicity of the peptides to HELA cells (Acc57) and COS-7 cells (CRL-1651) was determined using the MTT reduction assay (T. Mossman, J. Immunol. Meth. 1983, 65, 55-63; M. V. Berridge, A. S. Tan, Arch. Biochem. Biophys. 1993, 303, 474-482). Briefly, the method was as follows: 4000 HELA cells/well and 3400 COS-7 cells/well were seeded and grown in 96-well microtiter plates for 24 h at 37° C. at 5% CO2. Thereafter, time zero (Tz) was determined by MTT reduction (see below). The supernatant of the remaining wells was discarded, and fresh medium and compounds in serial dilutions (12.5, 25 and 50 μg/mL, triplicates) were pipetted into the wells. After incubation of the cells for 48 h at 37° C. at 5% CO2 the supernatant was discarded again and 100 μL MTT reagent (0.5 mg/mL in RPMI1640 and DMEM, respectively)/well was added. Following incubation at 37° C. for 2-4 h the media were aspirated and the cells were spiked (100 μL isopropanol/well). The absorbance of the solubilized formazan was measured at 595 nm (OD595peptide). For each concentration averages were calculated from triplicates. The percentage of growth was calculated as follows: (OD595peptide-OD595Tz-OD595Empty well)/(OD595Tz-OD595Empty well)×100%. The GI50 (Growth Inhibition) concentrations were calculated for each peptide by using a trend line function for the concentrations (50, 25, 12.5 and 0 μg/mL), the corresponding percentages and the value 50, (=TREND (C50:C0%50:%0,50).

[3] = system: human red blood cells (hRBC); type: cell-based; conditions: red cells of human, 1 h
Procedure: The peptides were tested for their hemolytic activity against human red blood cells (hRBC). Fresh hRBC were washed three times with phosphate buffered saline (PBS) and centrifuged for 10 min at 2000×g. Compounds (100 μg/mL) were incubated with 20% hRBC (v/v) for 1 h at 37° C. and shaking at 300 rpm. The final erythrocyte concentration was approximately 0.9×10^9 cells/mL. A value of 0% and 100% cell lyses, respectively, was determined by incubation of hRBC in the presence of PBS containing 0.001% acetic acid and 2.5% Triton X-100 in H2O, respectively. The samples were centrifuged, the supernatants were 8-fold diluted in PBS buffer and the optical densities (OD) were measured at 540 nm. The 100% lyses value (OD540H2O) gave an OD50 of approximately 0.5-1.0.
Percent hemolysis was calculated as follows: (OD540peptide/OD540H2O)×100%.

SMILES	Shigella boydii DSM 7532 MIC [1] [µg/mL]	GI50 at 48 h ([2]; African green monkey) [µg/mL]	GI50 at 48 h ([2]; human) [µg/mL]	Hemolysis at 100 μg/mL [3] [%]
CC[C@H](C)[C@@H]1NC(=O)[C@H](CCCNC(=N)N)NC(=O)[C@H](Cc2c[nH]c3ccccc23)NC(=O)[C@@H]2CCCN2C(=O)[C@H]2CCCN2C(=O)[C@H](C)NC(=O)[C@H](CCC(N)=O)NC(=O)[C@H](Cc2ccc(O)cc2)NC(=O)[C@H](CCCNC(=N)N)NC(=O)[C@H](CCC(N)=O)NC(=O)[C@H](CC(N)=O)NC(=O)[C@@H](CCCNC(=N)N)NC(=O)[C@H]([C@@H](C)CC)NC(=O)[C@H](CCCNC(=N)N)NC1=O [Example 15] (HELM PEPTIDE1{W.R.I.R.I.[dR].N.Q.R.Y.Q.A.[dP].P}$PEPTIDE1,PEPTIDE1,1:R1-14:R2$$$V2.0)	16	> 50	> 50	0.0
CC[C@H](C)[C@@H]1NC(=O)[C@H](CCCNC(=N)N)NC(=O)[C@H](Cc2c[nH]c3ccccc23)NC(=O)[C@@H]2CCCN2C(=O)[C@H]2CCCN2C(=O)[C@H](C)NC(=O)[C@H](CCCNC(=N)N)NC(=O)[C@H](CC(N)=O)NC(=O)[C@H](CCCNC(=N)N)NC(=O)[C@H](CCCCN)NC(=O)[C@H](CC(N)=O)NC(=O)[C@@H](CCCNC(=N)N)NC(=O)[C@H]([C@@H](C)CC)NC(=O)[C@H](CCCNC(=N)N)NC1=O [Example 3] (HELM PEPTIDE1{W.R.I.R.I.[dR].N.K.R.N.R.A.[dP].P}$PEPTIDE1,PEPTIDE1,1:R1-14:R2$$$V2.0)	16	> 50	> 50	0.1
CC[C@H](C)[C@@H]1NC(=O)[C@H](CCCNC(=N)N)NC(=O)[C@H](Cc2c[nH]c3ccccc23)NC(=O)[C@@H]2CCCN2C(=O)[C@H]2CCCN2C(=O)[C@H](C)NC(=O)[C@H](CCC(N)=O)NC(=O)[C@H](Cc2c[nH]c3ccccc23)NC(=O)[C@H](CCCNC(=N)N)NC(=O)[C@H](CCC(N)=O)NC(=O)[C@H](CC(N)=O)NC(=O)[C@@H](CCCNC(=N)N)NC(=O)[C@H]([C@@H](C)CC)NC(=O)[C@H](CCCNC(=N)N)NC1=O [Example 16] (HELM PEPTIDE1{W.R.I.R.I.[dR].N.Q.R.W.Q.A.[dP].P}$PEPTIDE1,PEPTIDE1,1:R1-14:R2$$$V2.0)	16	> 50	> 50	0.5
CC[C@H](C)[C@@H]1NC(=O)[C@H](CCCNC(=N)N)NC(=O)[C@H](Cc2c[nH]c3ccccc23)NC(=O)[C@@H]2CCCN2C(=O)[C@H]2CCCN2C(=O)[C@H](C)NC(=O)[C@H](CCC(N)=O)NC(=O)[C@H](CC(C)C)NC(=O)[C@H](CCCNC(=N)N)NC(=O)[C@H](CCC(N)=O)NC(=O)[C@H](CC(C)C)NC(=O)[C@@H](CCCNC(=N)N)NC(=O)[C@H]([C@@H](C)CC)NC(=O)[C@H](CCCNC(=N)N)NC1=O [Example 13] (HELM PEPTIDE1{W.R.I.R.I.[dR].L.Q.R.L.Q.A.[dP].P}$PEPTIDE1,PEPTIDE1,1:R1-14:R2$$$V2.0)	16	> 50	> 50	0.0
CC[C@H](C)[C@@H]1NC(=O)[C@H](CCCNC(=N)N)NC(=O)[C@H](Cc2c[nH]c3ccccc23)NC(=O)[C@@H]2CCCN2C(=O)[C@H]2CCCN2C(=O)[C@H](C)NC(=O)[C@H](CCC(N)=O)NC(=O)[C@H](CC(C)C)NC(=O)[C@H](CCCNC(=N)N)NC(=O)[C@H](CCC(N)=O)NC(=O)[C@H](CC(N)=O)NC(=O)[C@@H](CCCNC(=N)N)NC(=O)[C@H]([C@@H](C)CC)NC(=O)[C@H](CCN)NC1=O [Example 7] (HELM PEPTIDE1{W.R.I.[Dab].I.[dR].N.Q.R.L.Q.A.[dP].P}$PEPTIDE1,PEPTIDE1,1:R1-14:R2$$$V2.0)	>16	> 50	> 50	0.0
CC[C@H](C)[C@@H]1NC(=O)[C@H](CCCN)NC(=O)[C@H](Cc2c[nH]c3ccccc23)NC(=O)[C@@H]2CCCN2C(=O)[C@H]2CCCN2C(=O)[C@H](C)NC(=O)[C@H](CCC(N)=O)NC(=O)[C@H](CC(C)C)NC(=O)[C@H](CCCNC(=N)N)NC(=O)[C@H](CCC(N)=O)NC(=O)[C@H](CC(N)=O)NC(=O)[C@@H](CCCNC(=N)N)NC(=O)[C@H]([C@@H](C)CC)NC(=O)[C@H](CCCNC(=N)N)NC1=O [Example 6] (HELM PEPTIDE1{W.[Orn].I.R.I.[dR].N.Q.R.L.Q.A.[dP].P}$PEPTIDE1,PEPTIDE1,1:R1-14:R2$$$V2.0)	>16	> 50	> 50	0.0
CC[C@H](C)[C@@H]1NC(=O)[C@H](CCCNC(=N)N)NC(=O)[C@H](Cc2c[nH]c3ccccc23)NC(=O)[C@@H]2CCCN2C(=O)[C@H]2CCCN2C(=O)[C@H](CCC(N)=O)NC(=O)[C@H](CCCNC(=N)N)NC(=O)[C@H](CC(C)C)NC(=O)[C@H](CCCNC(=N)N)NC(=O)[C@H](CCCCN)NC(=O)[C@H](CC(N)=O)NC(=O)[C@@H](CCCNC(=N)N)NC(=O)[C@H]([C@@H](C)CC)NC(=O)[C@H](CCCNC(=N)N)NC1=O [Example 2] (HELM PEPTIDE1{W.R.I.R.I.[dR].N.K.R.L.R.Q.[dP].P}$PEPTIDE1,PEPTIDE1,1:R1-14:R2$$$V2.0)	4	> 50	> 50	0.0
